Source: patent publication US20250326772A1, “MRGPRX2 ANTAGONISTS, PHARMACEUTICAL COMPOSITION INCLUDING MRGPRX2 ANTAGONIST, AND METHOD OF TREATING MRGPRX2-MEDIATED DISEASE OR DISORDER” (KYORIN PHARMACEUTICAL CO., LTD., priority 2024, published 2025)

Molecular target: T1, MRGPRX2 (Homo sapiens, UniProt Q96LB1)
T1 sequence (Q96LB1 1-330): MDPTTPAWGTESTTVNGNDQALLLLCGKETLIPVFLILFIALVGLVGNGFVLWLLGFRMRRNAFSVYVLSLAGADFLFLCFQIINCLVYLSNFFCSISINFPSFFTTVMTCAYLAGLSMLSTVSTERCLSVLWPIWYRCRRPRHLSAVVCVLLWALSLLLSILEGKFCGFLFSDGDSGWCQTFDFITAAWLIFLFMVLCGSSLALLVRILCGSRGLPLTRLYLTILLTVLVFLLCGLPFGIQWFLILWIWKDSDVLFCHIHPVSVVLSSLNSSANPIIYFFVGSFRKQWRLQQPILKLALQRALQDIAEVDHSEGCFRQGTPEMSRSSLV
Assay: MRGPRX2 reporter cell assay (NFAT-RE luciferase, Substance P stimulation)
Type: cell-based
Conditions: U2OS cells stably transfected with MRGPRX2 and NFAT-RE luciferase reporter, Substance P at EC80
Summary of the method: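 U2OS cells stably expressing MRGPRX2 and an NFAT-RE luc2P reporter, pre-incubated 30 min at 37° C with compound (0.5% DMSO), then stimulated with Substance P at EC80 for 6 h. Luminescence after ONE-GLO; percent inhibition fitted by four-parameter logistic to IC50.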

| Compound | IC50 (class symbols) [µM] | IC50 [µM] |
| --- | --- | --- |
| Cn1cc(-c2c(-c3c(C(F)F)nn4c3OC[C@@H](NS(C)(=O)=O)C4)[nH]c3ncsc23)c(OC(F)F)n1 [EX. 520, (S)—N-(3-(6-(3-(difluoromethoxy)-1-methyl-1H-pyrazol-4-yl)-4H-pyrrolo[2,3-d]thiazol-5-yl)-2-(difluoromethyl)-6,7-dihydro-5H-pyrazolo[5,1-b] [1,3]oxazin-6-yl) methanesulfonamide] | < 0.01 |  |
| CS(=O)(=O)N[C@@H]1COc2c(-c3[nH]c4ncccc4c3-c3cccnc3OC(F)F)c(C(F)F)nn2C1 [EX. 521] | < 0.01 |  |
| CS(=O)(=O)N[C@@H]1COc2c(-c3[nH]c4ncccc4c3-c3cccnc3C#N)c(C(F)F)nn2C1 [EX. 522] | < 0.01 |  |
| CS(=O)(=O)N[C@@H]1COc2c(-c3[nH]c4ncccc4c3-c3ccncc3C#N)c(C(F)F)nn2C1 [EX. 523] | < 0.01 |  |
| CS(=O)(=O)N[C@@H]1COc2c(-c3[nH]c4ncccc4c3-c3csnc3OC(F)F)c(C(F)F)nn2C1 [EX. 524] | < 0.01 |  |
| Cc1cc(-c2c(-c3c(C(F)F)nn4c3OC[C@@H](NS(C)(=O)=O)C4)[nH]c3ncccc23)c(C#N)s1 [EX. 525] | < 0.01 |  |
| Cn1cc(-c2c(-c3c(C(F)F)nn4c3OC[C@@H](NS(C)(=O)=O)C4)[nH]c3ncccc23)c(OC(F)F)n1 [EX. 526, (S)—N-(3-(3-(3-(difluoromethoxy)-1-methyl-1H-pyrazol-4-yl)-1H-pyrrolo[2,3-b]pyridin-2-yl)-2-(difluoromethyl)-6,7-dihydro-5H-pyrazolo[5,1-b] [1,3]oxazin-6-yl) methanesulfonamide] | < 0.01 |  |
| Cn1cc(-c2c(-c3c(C(F)F)nn4c3OC[C@@H](O)C4)[nH]c3ncccc23)c(OC(F)F)n1 [EX. 527, (S)-3-(3-(3-(difluoromethoxy)-1-methyl-1H-pyrazol-4-yl)-1H-pyrrolo[2,3-b]pyridin-2-yl)-2-(difluoromethyl)-6,7-dihydro-5H-pyrazolo[5,1-b] [1,3]oxazin-6-ol] | < 0.01 | 0.0044 |
| Cn1cc(-c2c(-c3c(C(F)(F)F)nn4c3OCCC4)[nH]c3ncccc23)c(OC(F)F)n1 [EX. 528] | < 0.01 |  |
| Cn1cc(-c2c(-c3c(C(F)F)nn4c3OC[C@@H](OC(F)F)C4)[nH]c3ncccc23)c(OC(F)F)n1 [EX. 529] | < 0.01 |  |
| COC(=O)CO[C@@H]1COc2c(-c3[nH]c4ncccc4c3-c3cn(C)nc3OC(F)F)c(C(F)F)nn2C1 [EX. 530] | < 0.01 |  |
| CO[C@@H]1COc2c(-c3[nH]c4ncccc4c3-c3cn(C)nc3OC(F)F)c(C(F)F)nn2C1 [EX. 531] | < 0.01 | 0.0023 |
| CCO[C@@H]1COc2c(-c3[nH]c4ncccc4c3-c3cn(C)nc3OC(F)F)c(C(F)F)nn2C1 [EX. 532] | < 0.01 |  |
| COCCO[C@@H]1COc2c(-c3[nH]c4ncccc4c3-c3cn(C)nc3OC(F)F)c(C(F)F)nn2C1 [EX. 533] | < 0.01 |  |
| Cn1cc(-c2c(-c3c(C(F)F)nn4c3OC[C@@H](OCCO)C4)[nH]c3ncccc23)c(OC(F)F)n1 [EX. 534] | < 0.01 | 0.0021 |
| Cn1cc(-c2c(-c3c(C(F)F)nn4c3OC[C@@H](OCC(C)(C)O)C4)[nH]c3ncccc23)c(OC(F)F)n1 [EX. 535] | < 0.01 | 0.002 |
| Cn1cc(-c2c(-c3c(C(F)F)nn4c3OC[C@@H](OCCNS(C)(=O)=O)C4)[nH]c3ncccc23)c(OC(F)F)n1 [EX. 536] | < 0.01 |  |
| CC(=O)NCCO[C@@H]1COc2c(-c3[nH]c4ncccc4c3-c3cn(C)nc3OC(F)F)c(C(F)F)nn2C1 [EX. 537] | < 0.01 |  |
| CN(C)CCO[C@@H]1COc2c(-c3[nH]c4ncccc4c3-c3cn(C)nc3OC(F)F)c(C(F)F)nn2C1 [EX. 538] | < 0.01 |  |

| Compound | IC50 (class symbols) [µM] | IC50 [µM] |
| --- | --- | --- |
| CCNC(=O)O[C@@H]1COc2c(-c3[nH]c4ncccc4c3-c3cn(C)nc3OC(F)F)c(C(F)F)nn2C1 [EX. 539] | < 0.01 |  |
| CNC(=O)O[C@@H]1COc2c(-c3[nH]c4ncccc4c3-c3cn(C)nc3OC(F)F)c(C(F)F)nn2C1 [EX. 540] | < 0.01 |  |
| CO[C@@H]1COc2c(-c3[nH]c4ncccc4c3-c3cn(C)nc3OC(F)F)c(C)nn2C1 [EX. 541] | < 0.01 |  |
| Cc1nn2c(c1-c1[nH]c3ncccc3c1-c1cn(C)nc1OC(F)F)OC[C@@H](OCCO)C2 [EX. 542] | < 0.01 |  |
| Cn1cc(-c2c(-c3c(C(F)F)nn4c3OC[C@@H](N)C4)[nH]c3ncccc23)c(OC(F)F)n1 [EX. 543] | < 0.01 |  |
| CC(=O)N[C@@H]1COc2c(-c3[nH]c4ncccc4c3-c3cn(C)nc3OC(F)F)c(C(F)F)nn2C1 [EX. 544] | < 0.01 |  |
| CCc1nn2c(c1-c1[nH]c3ncccc3c1-c1cn(C)nc1OC(F)F)OC[C@@H](NS(C)(=O)=O)C2 [EX. 545] | < 0.01 |  |
| COC(=O)N[C@@H]1COc2c(-c3[nH]c4ncccc4c3-c3cn(C)nc3OC(F)F)c(C)nn2C1 [EX. 546] | < 0.01 |  |
| Cc1nn2c(c1-c1[nH]c3ncccc3c1-c1cn(C)nc1OC(F)F)OC[C@@H](NS(C)(=O)=O)C2 [EX. 547] | < 0.01 |  |
| Cn1cc(-c2c(-c3c(C(F)F)nn4c3OC[C@@H](NC(=O)[C@@H]3C[C@@H]3F)C4)[nH]c3ncccc23)c(OC(F)F)n1 [EX. 549] | < 0.01 |  |
| Cn1cc(-c2c(-c3c(C(F)F)nn4c3OC[C@@H](NC(=O)[C@H]3C[C@@H]3F)C4)[nH]c3ncccc23)c(OC(F)F)n1 [EX. 550] | < 0.01 |  |
| Cn1cc(-c2c(-c3c(C(F)F)nn4c3OC[C@@H](NC(=O)[C@@H]3C[C@H]3F)C4)[nH]c3ncccc23)c(OC(F)F)n1 [EX. 551] | < 0.01 |  |
| Cn1cc(-c2c(-c3c(C(F)F)nn4c3OC[C@@H](NC(=O)[C@@H]3CC3(F)F)C4)[nH]c3ncccc23)c(OC(F)F)n1 [EX. 552] | < 0.01 |  |
| Cn1cc(-c2c(-c3c(C(F)F)nn4c3OC[C@@H](NC(=O)[C@H]3CC3(F)F)C4)[nH]c3ncccc23)c(OC(F)F)n1 [EX. 553] | < 0.01 |  |
| Cn1cc(-c2c(-c3c(C(F)F)nn4c3OC[C@@H](NC(=O)C3CC(F)(F)C3)C4)[nH]c3ncccc23)c(OC(F)F)n1 [EX. 554] | < 0.01 |  |
| C[C@@H](O)CC(=O)N[C@@H]1COc2c(-c3[nH]c4ncccc4c3-c3cn(C)nc3OC(F)F)c(C(F)F)nn2C1 [EX. 555] | < 0.01 |  |
| C[C@H](O)CC(=O)N[C@@H]1COc2c(-c3[nH]c4ncccc4c3-c3cn(C)nc3OC(F)F)c(C(F)F)nn2C1 [EX. 556] | < 0.01 |  |
| Cn1cc(-c2c(-c3c(C(F)F)nn4c3OC[C@@H](NCCO)C4)[nH]c3ncccc23)c(OC(F)F)n1 [EX. 558] | < 0.01 |  |
| Cn1cc(-c2c(-c3c(C(F)F)nn4c3OC[C@@H](NC(=O)C3CC3)C4)[nH]c3ncccc23)c(OC(F)F)n1 [EX. 559] | < 0.01 | 0.003 |

| Compound | IC50 (class symbols) [µM] | IC50 [µM] |
| --- | --- | --- |
| C[C@@H](O)C(=O)N[C@@H]1COc2c(-c3[nH]c4ncccc4c3-c3cn(C)nc3OC(F)F)c(C(F)F)nn2C1 [EX. 560] | < 0.01 |  |
| C[C@H](O)C(=O)N[C@@H]1COc2c(-c3[nH]c4ncccc4c3-c3cn(C)nc3OC(F)F)c(C(F)F)nn2C1 [EX. 561] | < 0.01 |  |
| Cn1cc(C(=O)N[C@@H]2COc3c(-c4[nH]c5ncccc5c4-c4cn(C)nc4OC(F)F)c(C(F)F)nn3C2)cn1 [EX. 562] | < 0.01 |  |
| Cn1cc(-c2c(-c3c(C(F)F)nn4c3OC[C@@H](NC(=O)[C@H]3C[C@@](C)(O)C3)C4)[nH]c3ncccc23)c(OC(F)F)n1 [EX. 563] | < 0.01 |  |
| Cn1cc(-c2c(-c3c(C(F)F)nn4c3OC[C@@H](NC(=O)[C@H]3C[C@@H](O)C3)C4)[nH]c3ncccc23)c(OC(F)F)n1 [EX. 564] | < 0.01 |  |
| Cn1cc(-c2c(-c3c(C(F)F)nn4c3OC[C@@H](NC(=O)[C@H]3C[C@H](O)C3)C4)[nH]c3ncccc23)c(OC(F)F)n1 [EX. 565] | < 0.01 |  |
| Cn1cc(-c2c(-c3c(C(F)F)nn4c3OC[C@@H](NC(=O)OC3CCOC3)C4)[nH]c3ncccc23)c(OC(F)F)n1 (stereo partly drawn) [EX. 566] | < 0.01 |  |
| C[C@H](O)COC(=O)N[C@@H]1COc2c(-c3[nH]c4ncccc4c3-c3cn(C)nc3OC(F)F)c(C(F)F)nn2C1 [EX. 567] | < 0.01 |  |
| C[C@@H](O)COC(=O)N[C@@H]1COc2c(-c3[nH]c4ncccc4c3-c3cn(C)nc3OC(F)F)c(C(F)F)nn2C1 [EX. 568] | < 0.01 |  |
| Cn1cc(-c2c(-c3c(C(F)F)nn4c3OC[C@@H](NC(=O)N3CC(O)C3)C4)[nH]c3ncccc23)c(OC(F)F)n1 [EX. 569] | < 0.01 |  |
| COC(=O)N[C@@H]1COc2c(-c3[nH]c4ncccc4c3-c3cn(C)nc3OC(F)F)c(C(F)F)nn2C1 [EX. 571] | < 0.01 | 0.0012 |
| CCc1nn2c(c1-c1[nH]c3ncccc3c1-c1cn(C)nc1OC(F)F)OC[C@@H](NC(=O)OC)C2 [EX. 572] | < 0.01 | 0.0036 |
| CCOC(=O)N[C@@H]1COc2c(-c3[nH]c4ncccc4c3-c3cn(C)nc3OC(F)F)c(C(F)F)nn2C1 [EX. 573] | < 0.01 |  |
| Cn1cc(-c2c(-c3c(C(F)F)nn4c3OC[C@@H](NS(=O)(=O)C3(C)CC3)C4)[nH]c3ncccc23)c(OC(F)F)n1 [EX. 574] | < 0.01 |  |
| CC(C)OC(=O)N[C@@H]1COc2c(-c3[nH]c4ncccc4c3-c3cn(C)nc3OC(F)F)c(C(F)F)nn2C1 [EX. 575] | < 0.01 |  |
| CN(C)S(=O)(=O)N[C@@H]1COc2c(-c3[nH]c4ncccc4c3-c3cn(C)nc3OC(F)F)c(C(F)F)nn2C1 [EX. 576] | < 0.01 |  |
| Cn1cc(-c2c(-c3c(C(F)F)nn4c3OC[C@@H](NS(=O)(=O)CCO)C4)[nH]c3ncccc23)c(OC(F)F)n1 [EX. 577] | < 0.01 |  |
| COC(=O)N(C)[C@@H]1COc2c(-c3[nH]c4ncccc4c3-c3cn(C)nc3OC(F)F)c(C(F)F)nn2C1 [EX. 578] | < 0.01 |  |
